What was measured:
[1] = test system: Candida albicans (ATCC 90028); assay: Filter paper disk test on agar plates containing C. albicans; format: cell-based; details: 5 μL or 10 μL on paper disk, 37° C., 24-72 hours
Description: (§1) Candida albicans (ATCC 90028) and Aspergillis fumigatus (ATCC 16424) were tested in vitro for the effect of antifungal compositions according to embodiments of the invention. Fungal cells were obtained from the American Type Culture Collection.
(§2) C. Albicans yeast cells were grown in YM broth (Difco™ 0711-01) containing the following ingredients: 1% peptone, 1% yeast extract and 2% glucose. The cells were grown at 37° C., harvested by centrifugation, resuspended in the same medium and stored frozen at −80° C. The cells were used at a concentration of about 1×10^6 cells/mL. A. fumigatus was cultured on solid MPG containing 20 g/L malt extract (Difco™ 21860); 1 g/L Difco™ 211677); 20 g/L sucrose and 15 g/L Bacto-agar (Difco™ 140-07-04) in water, at 37° C. for 7 to 10 days. Conidia were harvested by flooding the medium with sterile water, filtered through glass wool to exclude hyphal fragments, washed by centrifugation (5000 xg for 10 minutes at 4° C., resuspended at about 1×10^6 conidia/mL in water and stored at −80° C. until used.
(§3) For testing, A. fumigatus conidia and C. albicans cells were thawed. […]
(§4) Samples (5 μL, 10 μL or 20 μL as indicated in the Figures) of liquid drug formulation were placed on sterile filter paper disks and the disks allowed to air dry 15-30 minutes at room temperature in a Class II biosafety hood. […] A portion of each sample was analyzed for potency. […]

[2] = test system: Aspergillis fumigatus (ATCC 16424); assay: Filter paper disk test on agar plates containing A. fumigatus (zone of killing); format: cell-based; details: 5 μL or 10 μL on paper disk, 37° C., 24-72 hours
Description: as §1, §2, §3, §4

Clc1ccc(COC(Cn2ccnc2)c2ccc(Cl)cc2Cl)c(Cl)c1 (centres unmarked) [Miconazole, miconazole]
killing of C. albicans (visual observation of plates) [1]: highly active | killing of A. fumigatus (visual observation of plates) [2]: highly active

— US20070078116A1, “Method of treatment of otitis externa” (Fairfield Clinical Trials, LLC, priority 2003, published 2007)
